Reference: article PMC10266261, “A High-Throughput Approach to Identify Specific Neurotoxicants / Developmental Toxicants in Human Neuronal Cell Function Assays” (ALTEX, 2018)
Read-outs that look alike come from different tables or passages of the source.

What was measured:
LUHMES cells = assay: cells; assay type: cell-based, human; conditions: for classification / outcome after hit confirmation or re-testing (EC50 prediction model): EC50 ratio V/NA ≥ 4 specific, < 4 cytotoxic; for classification in the NeuriTox screen: hit = NA decreased at concentrations not affecting viability
Experimental: For the NeuriTox test (= UKN4), LUHMES (Lund human mesencephalic) cells were characterized and cultured as described in detail earlier ([Krug et al., 2013]; [Lotharius et al., 2005]; [Scholz et al., 2011]). Briefly, cells were maintained in proliferation medium (PM: AdvDMEM/F12 supplemented with 2 mM glutamine, 1x N2 supplement and 40 ng/ml fibroblast growth factor-2) in PLO/fibronectin coated flasks (50 μg/ml poly-L-ornithine (PLO) and 1 μg/ml fibronectin). For differentiation, cells were seeded at a density of 46,000 cells/cm^2 in PM. After 24 h, they were switched to differentiation medium (DM) containing AdvDMEM/F12 supplemented with 2 mM glutamine, 1x N2 supplement, 2.25 μM tetracycline, 1 mM dibutyryl 3’,5’-cyclic adenosine monophosphate (cAMP), and 2 ng/ml recombinant human glial cell derived neurotrophic factor (GDNF).
For the NeuriTox test, LUHMES cells were differentiated for 48 h and seeded into 96 well plates at a density of 100,000 cells/cm^2 in a volume of 90 μl DM without cAMP and GDNF. Treatment was initiated applying 10 μl of a 10x concentrated treatment solution one hour after seeding. At 24 h after treatment, staining mix (SM) was applied (final concentrations: 1 μg/ml H-33342, 1 μM calcein-AM).
(§1) Image acquisition was performed with an ArrayScan VTI HCS (high content imaging) microscope (Cellomics, Waltham, MA, USA).
The procedure was applied as detailed earlier ([Hoelting et al., 2016]; [Stiegler et al., 2011]). After automated imaging, an algorithm was applied that identified the neuronal somata (based on identified nuclei) and subtracted the somatic area from the total neuronal area to obtain the neurite area (NA), i.e., the number of pixels per field covered by neurites. Viability analysis was performed on the same pictures using combined information from H-33342 and calcein channels. Cells with normal-sized nuclei that were calcein-positive were counted as live cells, whereas H-33342 single-positive cells were counted as dead cells. Viability (V) was expressed as percentage of live cells relative to control.
(§2) Neurite area (NA) and viability (V) were always expressed as percentage of the DMSO control. In a first step, matched technical replicates were averaged. […] Curve fitting was performed employing a 4-parameter log-logistic function with least squares fit. The upper asymptote of the fit was forced to 100%, the lower asymptote was variable. The variation of DMSO controls was calculated from pooled values of DMSO controls over several experiments.
For calculation of the benchmark concentration values (BMC), a benchmark response (BMR) of three standard deviations of DMSO solvent controls of all assay plates (= “3 x noise level”) was used. […] To identify specific effects on neurite outgrowth, the EC50 ratio of EC50(viability)/EC50(neurite area) was calculated. The NeuriTox test system has a specificity threshold ratio of 4, the PeriTox test system has one of 3 ([Hoelting et al., 2016]; [Krug et al., 2013]).
If V was not affected at the highest tested concentration (HTC), then 4 x HTC was used as surrogate EC50(V) (marked with ♦; for EC25 calculation, the HTC was doubled in this case) ([Krug et al., 2013]).
For the actual screening procedure, a defined workflow was established that contained several pre-determined decision points. All compounds were tested at 1:1000 dilutions of their stock concentration, and at subsequent 3-fold dilution levels. For most compounds, the stock was 20 mM, so that the test concentrations were 20 μM, 6.7 μM, 2.2 μM, 0.7 μM, 0.25 μM, 82 nM, 27 nM, 9 nM, 3 nM, and 1 nM. For 2,2’,4,4’,5,5’-hexabromodiphenyl-ether, chrysene, dibenz(a,h)anthracene, bis(tributyltin) oxide, benzo[g,h,i]perylene, and 2,3,7,8-tetrachlorodibenzo-p-dioxin lower stock concentrations were used.

[1] = tested on: immature human dorsal root ganglia neurons; assay: cells; assay type: cell-based; conditions: for classification in the PeriTox screen: three independent screen runs, up to 20 μM; for EC50: Homo sapiens, Neuron
Experimental: The PeriTox test (= UKN5) is based on cells differentiated from the H9 human embryonic stem cell (hESC) line (WA09 line), which was obtained from WiCell (Madison, WI, USA). The import of cells and the experiments were authorized under license no. 170–79-1–4-27 (Robert Koch Institute, Berlin, Germany).
After one hour, 25 μl PDM with 4x concentrated serial dilutions of the test compounds was added to the cells. At 23 h after treatment, the cells were stained with SM and incubated for one additional hour at 37°C.
as §1
After automated imaging, an algorithm was applied that identified the neuronal somata (based on identified nuclei) and subtracted the somatic area from the total neuronal area to obtain the neurite area (NA), i.e., the number of pixels per field covered by neurites. […] Viability (V) was expressed as percentage of live cells relative to control.
as §2
For calculation of the benchmark concentration values (BMC), a benchmark response (BMR) of three standard deviations of DMSO solvent controls of all assay plates (= “3 x noise level”) was used. […] To identify specific effects on neurite outgrowth, the EC50 ratio of EC50(viability)/EC50(neurite area) was calculated.
This method uses human immature dorsal root ganglia neurons (iDRG) that are produced from pluripotent stem cells that are still in a phase of neurite growth. Like in the NeuriTox assay, exposure to toxicants in this test is for 24 h, and readouts for viability (V) and neurite area (NA) are also conducted in a similar way (Fig. 7A).

cardiomyocytes = conditions: specific = cardio-physiologic parameters affected after 30 min at three-fold lower concentration than viability and no effect on viability after 24 h; ref Sirenko et al., 2017; cited from earlier work
[2] = screen data, 24 h exposure, up to 20 μM, read-out: EC50(NA), neurite area
[3] = screen data, 24 h exposure, up to 20 μM, read-out: EC50(V), viability
[4] = screen data, specificity threshold 4
[5] = Homo sapiens, 24 h, read-out: EC50(NA), neurite area
[6] = 24 h, read-out: EC50(NA), neurite area
[7] = read-out: EC50(V), viability, surrogate marked ♦

[CH3][Hg][Cl] [Methylmercury (II) chloride]
EC50 (LUHMES cells; [2]): 0.09 µM
EC50 (LUHMES cells; [3]): 0.16 µM
ratio EC50(V)/EC50(NA) (LUHMES cells; [4]): 1.8
classification in the PeriTox screen [1]: active hit compounds

Brc1ccc(Oc2cc(Br)c(Br)cc2Br)c(Br)c1 [PBDE, 2,2’,4,4’,5’-pentabromodiphenylether]
classification / outcome after hit confirmation or re-testing (EC50 prediction model) (LUHMES cells): unspecific cytotoxicants

C=C(C)[C@H]1Cc2c(ccc3c2O[C@@H]2COc4cc(OC)c(OC)cc4[C@@H]2C3=O)O1 [Rotenone]
EC50 (LUHMES cells; [5]): 0.5 µM
EC50 (LUHMES cells; Homo sapiens, read-out: EC50(V), viability, surrogate marked ♦): 40 µM
classification in the NeuriTox screen (LUHMES cells; up to 20 μM, 24 h): active hit compounds
classification in the cardiotoxicity test method (cardiomyocytes): generally cytotoxic
EC50 [1, 6]: 0.05 µM
EC50 [1, 7]: 16.5 µM
ratio EC50(V)/EC50(NA) ([1]; hit confirmation, ≥ 3 = specific hit): 330
classification in the PeriTox screen [1]: active hit compounds

Brc1ccc(Oc2ccc(Br)cc2Br)c(Br)c1 [TBDE, 2,2’,4,4’-tetrabromodiphenylether]
classification / outcome after hit confirmation or re-testing (EC50 prediction model) (LUHMES cells): unspecific cytotoxicants

CCN(CC)C(=S)SSC(=S)N(CC)CC [Tetraethylthiuram disulfide]
EC50 (LUHMES cells; [2]): 3.7 µM
EC50 (LUHMES cells; [3]): 2.9 µM
ratio EC50(V)/EC50(NA) (LUHMES cells; [4]): 0.8

O=P(Oc1ccccc1)(Oc1ccccc1)Oc1ccccc1 [Triphenyl phosphate]
classification / outcome after hit confirmation or re-testing (EC50 prediction model) (LUHMES cells): clearly non-toxic at concentrations up to 20 μM
EC50 (LUHMES cells; Homo sapiens, read-out: toxicity EC50): > 200 µM

CCCC(CCC)C(=O)O [VPA, valproic acid]
classification / outcome after hit confirmation (EC50 ratio viability/neurite area ≥ 3) [1]: cytotoxic

CC(C)[C@@H]1NC(=O)[C@H](C)OC(=O)[C@@H](C(C)C)NC(=O)[C@@H](C(C)C)OC(=O)[C@H](C(C)C)NC(=O)[C@H](C)OC(=O)[C@@H](C(C)C)NC(=O)[C@@H](C(C)C)OC(=O)[C@H](C(C)C)NC(=O)[C@H](C)OC(=O)[C@@H](C(C)C)NC(=O)[C@@H](C(C)C)OC1=O [Valinomycin]
EC50 (LUHMES cells; [5]): 0.01 µM
EC50 (LUHMES cells; Homo sapiens, 24 h, read-out: EC50(V), viability): 6.2 µM
EC50 (LUHMES cells; Homo sapiens, read-out: EC50 for reduction of neurite area): 0.01 µM
ratio EC50(V)/EC50(NA) (LUHMES cells; hit confirmation, ≥ 4 = specific (developmental) neurotoxicant): 620
classification by BMC ratio (BMCV/BMCNA) (LUHMES cells; screen data, threshold changed to 2): specific DNT-compounds
classification by BMC ratio (BMCV/BMCNA) (LUHMES cells; screen data, threshold set at 3.16): cytotoxic
classification in the NeuriTox screen (LUHMES cells; up to 20 μM, 24 h): active hit compounds
classification in the cardiotoxicity test method (cardiomyocytes): generally cytotoxic
EC50 [1, 6]: 0.003 µM
EC50 ([1]; read-out: EC50(NA), neurite area): 0.02 µM
EC50 [1, 7]: 0.2 µM
classification in the PeriTox screen [1]: active hit compounds

CCC[CH2][Sn]([CH2]CCC)([CH2]CCC)[O][Sn]([CH2]CCC)([CH2]CCC)[CH2]CCC [bis(tributyltin)oxide]
classification in the NeuriTox screen (LUHMES cells; up to 20 μM, 24 h): cytotoxic

O=C1N[C@@H]2C(=C[C@H](O)[C@@H](O)[C@H]2O)c2cc3c(c(O)c21)OCO3 [narciclasine]
neurite area vs solvent control (LUHMES cells; 50 nM, 24 h, positive control): significantly reduced

CC(C)(C)C(O)(CCc1ccc(Cl)cc1)Cn1cncn1 (stereo not drawn) [tebuconazole]
EC50 (LUHMES cells; Homo sapiens, hit confirmation / re-testing, adjusted concentration range, 24 h, read-out: EC50(NA), neurite area): 142 µM
EC50 (LUHMES cells; Homo sapiens, re-testing, extended concentration range, read-out: toxicity EC50): 238 µM
